Reference: ChEMBL document CHEMBL1201862, “PubChem BioAssay data set” (2004)
Active and inactive are the calls of the source. Rule as the data show it, for most assays here: actives have a measured EC50 and inactives only a lower limit.

Columns and labels:
[1] = fluconazole-exposed Candida albicans growth modulators – fluorescence, retest, confirmation (AID 2467); assay type: functional, cell-based
[2] = NIH-3T3 fibroblast cytotoxicity, dose response, cytotoxicity control, cell-based, fluorescence, Alamar Blue, secondary assay (AID 2327); assay type: functional;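 also: NIH-3T3 mouse fibroblasts cultured with fluconazole at 8 µg/mL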
[3] = cells; assay type: functional, cell-based
[4] = cells; assay type: functional, cell-based; remark: listed apart in the source
[5] = Luminescence Cell-Based Dose Confirmation HTS to Identify Inhibitors of Platelet Dense Granule Release. [Related pubchem assays: 1663 (Primary HTS), 1678 (Summary of Project)]; assay type: functional
[6] = target: Luciferin 4-monooxygenase (Photinus pyralis, UniProt P08659); assay: inhibition of purified Photinus pyralis luciferase – biochemical, luminescence, dose response (AID 1891)
[7] = Luminescence Cell-Based Dose Retest to Confirm Inhibitors of Cancer Stem Cells. [Related pubchem assays (depositor defined):AID2717, AID2721]; assay type: functional; details: Homo sapiens
[8] = target: Large T antigen (Simian virus 40, UniProt P03070); assay type: functional, Betapolyomavirus macacae;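 also: Confirmatory-stage PubChem screen for compounds that inhibit SV40 T antigen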
[9] = Trypanosoma cruzi growth suppression in host cells – NIH3T3 host cells, beta-gal luminescence, confirmation (AID 2044); assay type: functional, cell-based;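 also: intracellular parasites grown in NIH/3T3 mouse fibroblasts as host cells; luminescent beta-galactosidase reporter signal from transgenic T. cruzi replicating inside host cells; inhibitors lower the luminescence signal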
[10] = NIH3T3 cell viability loss – ATP luminescence, mouse fibroblasts, counter-screen, dose response (AID 2010); assay type: functional, cell-based;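 also: cells exposed to compound for about 90 hours before reading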
[11] = Luminescence Cell-Based Dose Confirmation HTS to Identify Activators of 5'UTR Stem-Loop Driven Alpha-Synuclein mRNA Translation in H4 Neuroglioblastoma Cells. [Related pubchem assays: 1829 (Project Summary), 1814 (Primary HTS)]; assay type: functional
[12] = Luminescence Cell-Based Dose Response HTS to Identify Activators of Luciferase Translation or Activity in H4 […] Cells. [Related pubchem assays: 1829 (Project Summary), 1814 (Primary HTS)]; assay type: functional
[13] = system: H4; assay: Luminescence Cell-Based Dose Response HTS to Identify Activators of 5'UTR Stem-Loop Driven Prion Protein mRNA Translation in H4 Neuroglioblastoma Cells. [Related pubchem assays: 1829 (Project Summary), 1814 (Primary HTS)]; assay type: functional; details: Homo sapiens
[14] = target: T1, DNA repair protein RAD52 homolog (Homo sapiens, UniProt P43351); assay type: functional, biochemical
T1 sequence (P43351 whole entry): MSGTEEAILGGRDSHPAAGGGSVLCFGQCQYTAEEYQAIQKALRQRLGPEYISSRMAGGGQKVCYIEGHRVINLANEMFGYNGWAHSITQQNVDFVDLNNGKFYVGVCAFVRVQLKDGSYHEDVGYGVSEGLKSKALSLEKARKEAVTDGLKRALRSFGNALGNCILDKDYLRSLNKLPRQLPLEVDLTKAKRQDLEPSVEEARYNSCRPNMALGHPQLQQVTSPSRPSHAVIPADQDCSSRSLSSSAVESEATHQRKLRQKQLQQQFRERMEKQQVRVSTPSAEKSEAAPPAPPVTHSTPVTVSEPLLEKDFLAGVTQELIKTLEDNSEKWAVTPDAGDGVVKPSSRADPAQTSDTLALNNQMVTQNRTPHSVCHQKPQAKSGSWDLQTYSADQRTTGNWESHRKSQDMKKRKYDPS

[15] = target: Paired box protein Pax-8 (Homo sapiens, UniProt Q06710); assay: PAX8 transcriptional activity inhibition in RMG-I – RMG-I cells, luciferase, cherry-pick, dose response (AID 687027); assay type: functional, cell-based;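 also: luciferase reporter driven by Pax8 target thyroperoxidase promoter measured by SteadyGlo luminescence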
[16] = system: BJ; assay: cells; assay type: functional, cell-based; details: Homo sapiens
[17] = system: BJ; assay: BJ-TERT-LT-ST fibroblast viability loss – cell-based, RAS-independent, luminescence, dose response (AID 1935); assay type: functional; details: Homo sapiens;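 also: BJ fibroblasts immortalized with TERT plus LT and ST oncogenes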
[18] = system: BJ; assay: BJ-TERT fibroblast viability loss – cell-based, RAS-independent, luminescence, dose response (AID 1933); assay type: functional; details: Homo sapiens
[19] = DRD fibroblast viability loss – cell-based, non-viral oncogenic, luminescence, dose response (AID 1934); assay type: functional; details: Homo sapiens
[20] = P. falciparum Dd2 growth inhibitors, dose response, SYBR Green, cherry-picked samples (AID 1159567); assay type: functional, cell-based
[21] = system: H9c2; assay: cells; assay type: functional, cell-based; details: Rattus norvegicus, H9c2, Myocardium;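 also: confirmatory concentration-response retest of ultra-high-throughput screening hits for modulation of myocardial damage; cell death induced by hydrogen peroxide oxidative stress; compound pretreatment for 60 min then peroxide exposure for 2 h; potency is for protecting the cells against peroxide damage rather than for killing them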

Sequence of Luciferin 4-monooxygenase (P08659 whole entry): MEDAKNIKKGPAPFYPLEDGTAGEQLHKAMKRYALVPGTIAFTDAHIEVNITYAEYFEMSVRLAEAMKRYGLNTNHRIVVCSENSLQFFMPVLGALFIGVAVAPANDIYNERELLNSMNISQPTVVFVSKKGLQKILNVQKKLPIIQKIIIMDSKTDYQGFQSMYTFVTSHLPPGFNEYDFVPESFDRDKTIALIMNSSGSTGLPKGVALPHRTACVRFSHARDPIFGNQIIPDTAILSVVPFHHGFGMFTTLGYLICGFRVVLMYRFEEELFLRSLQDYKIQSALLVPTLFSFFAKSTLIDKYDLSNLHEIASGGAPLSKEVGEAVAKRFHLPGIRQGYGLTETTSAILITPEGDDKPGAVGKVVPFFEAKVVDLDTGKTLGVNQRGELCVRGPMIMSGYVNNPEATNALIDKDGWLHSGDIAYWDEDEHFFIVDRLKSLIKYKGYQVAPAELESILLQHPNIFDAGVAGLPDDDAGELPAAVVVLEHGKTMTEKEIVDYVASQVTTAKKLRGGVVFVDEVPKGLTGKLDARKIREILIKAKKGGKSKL
Sequence of Large T antigen (P03070 whole entry): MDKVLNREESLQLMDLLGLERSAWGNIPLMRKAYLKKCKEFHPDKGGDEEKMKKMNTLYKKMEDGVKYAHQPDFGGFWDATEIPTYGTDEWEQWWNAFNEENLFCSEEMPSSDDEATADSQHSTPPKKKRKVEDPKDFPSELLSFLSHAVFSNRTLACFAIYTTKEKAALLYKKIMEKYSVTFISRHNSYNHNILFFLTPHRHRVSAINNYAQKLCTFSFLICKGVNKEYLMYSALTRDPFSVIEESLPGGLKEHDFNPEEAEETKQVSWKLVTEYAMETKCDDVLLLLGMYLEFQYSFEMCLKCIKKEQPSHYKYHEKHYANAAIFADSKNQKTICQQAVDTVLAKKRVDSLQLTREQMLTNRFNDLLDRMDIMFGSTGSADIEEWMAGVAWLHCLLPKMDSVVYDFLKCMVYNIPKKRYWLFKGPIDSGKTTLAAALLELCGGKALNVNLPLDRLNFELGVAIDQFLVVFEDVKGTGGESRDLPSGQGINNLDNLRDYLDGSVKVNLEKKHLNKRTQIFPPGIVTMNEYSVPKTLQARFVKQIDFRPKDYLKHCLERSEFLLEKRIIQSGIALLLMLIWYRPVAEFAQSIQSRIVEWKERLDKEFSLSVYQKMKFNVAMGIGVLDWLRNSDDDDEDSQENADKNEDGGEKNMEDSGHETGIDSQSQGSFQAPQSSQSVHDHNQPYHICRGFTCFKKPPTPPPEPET
Sequence of Paired box protein Pax-8 (Q06710 whole entry): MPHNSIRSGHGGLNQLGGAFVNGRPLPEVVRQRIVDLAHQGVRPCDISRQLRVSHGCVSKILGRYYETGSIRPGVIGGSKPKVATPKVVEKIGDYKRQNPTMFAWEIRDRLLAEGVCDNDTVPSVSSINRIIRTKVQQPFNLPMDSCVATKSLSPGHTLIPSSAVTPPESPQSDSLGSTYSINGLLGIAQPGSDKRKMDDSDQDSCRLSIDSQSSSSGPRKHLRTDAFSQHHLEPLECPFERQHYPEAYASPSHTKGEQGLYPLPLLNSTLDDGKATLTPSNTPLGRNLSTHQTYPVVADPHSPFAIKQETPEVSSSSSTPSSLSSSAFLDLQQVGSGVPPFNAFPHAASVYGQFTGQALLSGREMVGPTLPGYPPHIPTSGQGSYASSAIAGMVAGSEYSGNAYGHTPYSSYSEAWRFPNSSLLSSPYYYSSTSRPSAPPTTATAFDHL

For `CC1(C)C(=O)C(c2nc3ccccc3[nH]2)=C(N)N1c1ccccc1`, the EC50 [1] was 5.1 µM (active) and the EC50 [2] was 58.9 µM (active).
With `Cc1ccc(N2CC(=O)Nc3c(sc4nc(C)cc(C)c34)C2=O)cc1` the EC50 [3] was > 350 µM (not active) and the EC50 [4] was > 350 µM (not active).
In the case of `COc1ccc(CCNC(=O)c2cc(S(=O)(=O)N3CCOCC3)cn2C)cc1OC`, the EC50 [5] is reported as > 112 µM (not active) and the EC50 [6] is reported as > 112 µM (not active).
With `O=C(CCSc1ccc(Cl)cc1)N1CCN(c2ccc(O)cc2)CC1` the AC50 [7] was 2.51 µM (active), the IC50 [8] was 6.74 µM (active) and the EC50 [9] was 0.169 µM (active). The EC50 [10] was 6.9 µM (active).
For `COc1ccc2occ(C(=O)c3cccs3)c2c1`, the EC50 [11] was 6.67 µM (active), the EC50 [12] was 13.3 µM (active) and the EC50 [13] was 32.6 µM (active).
In the case of `COC(=O)c1ccc(CSc2nc3c(c(=O)n2-c2ccc(F)cc2)SCC3)o1`, the EC50 [3] is reported as > 350 µM (not active) and the EC50 [4] is reported as > 350 µM (not active).
In the case of `Cc1ccc(Nc2cc(-n3cccn3)ncn2)c(C)c1`, the EC50 [11] is reported as 0.12 µM (active), the EC50 [12] is reported as 0.619 µM (active) and the EC50 [13] is reported as < 0.1 µM (active).
In the case of `Cc1ccc2c(c1)C1CN(C)CCC1N2Sc1ccccc1[N+](=O)[O-]` (stereo unspecified), the EC50 [1] is reported as > 38 µM (not active) and the EC50 [2] is reported as > 150 µM (inactive).
For `COc1cc(CC(=O)Nc2ccc(Cl)c(C(F)(F)F)c2)cc(OC)c1OC`, the EC50 [3] was > 350 µM (not active) and the EC50 [4] was > 350 µM (not active).
With `CCc1nc(C)c(C(=O)N2CCCC(C(=O)Nc3cccc(-c4cccc(C)c4)c3)C2)o1` (stereo unspecified) the EC50 [11] was 8.19 µM (active), the EC50 [12] was 7.7 µM (active) and the EC50 [13] was 16.3 µM (active).
In the case of `Cn1nc(C(=O)NC2CCCCC2)c2c1-c1ccccc1SC2`, the EC50 [11] is reported as 13.4 µM (active), the EC50 [12] is reported as 25.7 µM (active) and the EC50 [13] is reported as 12.2 µM (active).
In the case of `Cc1cccc(OCC(=O)Nc2ccc3c(c2)nc(CN2CCCCC2)n3C)c1`, the AC50 [14] is reported as 20 µM (active).
For `C=C(C)C(=O)OC1(C(F)(F)F)Oc2cc(C)ccc2NC1=O` (stereo unspecified), the AC50 [15] was 9.05 µM (active).
With `O=C(N1CCOCC1)N1CCN(S(=O)(=O)N2CCOCC2)CC1` the EC50 [5] was > 112 µM (not active) and the EC50 [6] was > 112 µM (not active).
For `COc1ccc(CC(NC(C)=O)C(=O)NC2CCN(C(=O)c3cccc(Cl)c3)CC2)cc1OC` (stereo unspecified), the EC50 [3] was > 350 µM (not active) and the EC50 [4] was > 350 µM (not active).
In the case of `CCC1CCCCN1Cc1c(O)ccc2c(=O)c(-c3ccccc3OC)coc12` (stereo unspecified), the EC50 [3] is reported as > 350 µM (not active) and the EC50 [4] is reported as > 350 µM (not active).
For `CCN=C(S)NNC(=O)c1cc(-c2ccc(OC)cc2)nc2ccccc12`, the EC50 [1] was > 38 µM (not active), the EC50 [16] was 14 µM (active) and the EC50 [5] was 1.38 µM (active). The EC50 [17] was > 150 µM (not active), the EC50 [6] was 0.107 µM (active) and the EC50 [18] was 9.62 µM (active). For the same compound, the EC50 [2] was > 160 µM (inactive) and the EC50 [19] was 11 µM (active).
In the case of `COc1ccc(C#Cc2ccc3c(c2)[C@H]2[C@H](CCN2C(=O)c2ccccn2)[C@H](CO)N3)cc1`, the AC50 [20] is reported as 5.61 µM (active).
With `Cc1ccc(C(=O)NC(=S)NNC(=O)c2ccccc2[N+](=O)[O-])cc1` the EC50 [1] was > 38 µM (not active) and the EC50 [2] was 18.8 µM (inconclusive).
For `Cc1cc([N+](=O)[O-])ccc1NC(=O)CSc1nncn1-c1cccnc1`, the EC50 [5] was > 112 µM (not active) and the EC50 [6] was > 112 µM (not active).
For `CC(OC(=O)Cc1nnc(O)c2ccccc12)C(=O)Nc1cccc([N+](=O)[O-])c1` (stereo unspecified), the IC50 [21] was > 79 µM (inactive).
With `COc1ccc(-c2cc(C(=O)N(C)Cc3nc(O)c4ccccc4n3)c3ccccc3n2)cc1OC` the IC50 [21] was > 79 µM (inactive).
